Source: paper PMC12135709, “Discovery of the First Selective and Potent PROTAC Degrader for the Pseudokinase TRIB2” (European journal of medicinal chemistry, 2024)

Target: T1, TRIB2 (Homo sapiens, UniProt Q92519)
T1 sequence (Q92519 1-343): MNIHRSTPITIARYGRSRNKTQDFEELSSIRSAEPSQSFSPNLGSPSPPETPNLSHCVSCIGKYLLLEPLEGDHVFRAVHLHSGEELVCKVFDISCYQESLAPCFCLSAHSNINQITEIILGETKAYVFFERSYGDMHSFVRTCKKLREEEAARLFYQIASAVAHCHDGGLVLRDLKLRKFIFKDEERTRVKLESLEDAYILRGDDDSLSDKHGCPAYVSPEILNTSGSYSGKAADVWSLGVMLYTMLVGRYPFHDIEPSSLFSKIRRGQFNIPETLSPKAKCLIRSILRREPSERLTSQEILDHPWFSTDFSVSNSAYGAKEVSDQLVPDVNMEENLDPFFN
Test: radiometric […]-ATP kinase assay with recombinant human TRIB2; supported by CETSA in PC3 cells
Assay type: biochemical

| IC50 [nM] | Compound |
| --- | --- |
| 65.2 | O=C1CCC(N2C(=O)c3ccc(NCCCCCCCCCC(=O)N4CCc5ccc(NC(=O)c6n[nH]c7ccc(-c8cccnc8F)cc67)cc5C4)cc3C2=O)C(=O)N1 (centres unmarked) [5k, N-(2-(10-((2-(2,6-dioxopiperidin-3-yl)-1,3-dioxoisoindolin-5-yl)amino)-decanoyl)-1,2,3,4-tetrahydroisoquinolin-7-yl)-5-(2-fluoropyridin-3-yl)-1H-indazole-3-carboxamide] |
| 0.74 | O=C(Nc1ccc2c(c1)CNCC2)c1n[nH]c2ccc(-c3cccnc3F)cc12 [compound 1, 5-(2-fluoropyridin-3-yl)-N-(1,2,3,4-tetrahydroisoquinolin-7-yl)-1H-indazole-3-carboxamide] |
